Earlier results, collected in article PMC10239758 (European journal of medicinal chemistry, 2023).
Converted amounts (≈) assume the structure as drawn.

Tested on: Mtb strain H37Rv
Settings: cited from earlier work

Structure (SMILES): Cc1cc(C)c2cc(C(=O)NC3CCCCCC3)[nH]c2c1 [Compound 6]
- MIC H37Rv: 3.9 ng/mL (≈ 0.0137 µM)
